According to patent publication US9790191B2, “Substituted acylaminopyrimidines as inducers of alpha interferon production” (JANSSEN SCIENCES IRELAND UC, priority 2012, dated 2017):

Legend:
IFN-α = experiment: Production of IFN-α in vivo after oral administration (murine pan-IFN-α ELISA); parameters: species or system C57BL/6 mice; conditions: mice
Method: (§1) Production of IFN-α and Up-Regulation of CXCL10 mRNA In Vivo
(§2) The potential of compounds to induce IFN-α production and CXCL10 mRNA up-regulation in vivo was evaluated after oral administration to C57BL/6 mice. The quantity of IFN-α in systemic circulation was followed over time, using a murine pan-IFN-α ELISA (PBL InterferonSource, ref. 42120). This ELISA recognizes all murine IFN-α subtypes. […] CXCL10 mRNA expression levels were followed by RT-qPCR.
(§3) For each compound and dose tested, 3 female C57BL/6J mice, from 6-10 weeks of age, 20-22 g of body weight were tested. Animals were given compound 1 as a single oral dose of 15.5 mg/kg as a 1.55 mg/mL solution in 20% aqueous hydroxypropyl β-cyclodextrin vehicle using a feeding tube. 0.5, 1, 2, 4 and 7 hours after dosing, systemic blood was drawn from the tail vein into K-EDTA containing tubes. Plasma was separated from blood cells by centrifugation at 1500 g, 10 min, 4° C. and stored at −80° C. prior to ELISA analysis. At each time point, the median and standard deviation over the 3 animals was calculated to evaluate the potency of the compound.

CXCL10 mRNA = experiment: Up-regulation of CXCL10 mRNA in vivo after oral administration (RT-qPCR); parameters: species or system C57BL/6 mice; conditions: mice
Method: as §1, §2
as §3, with “Plasma was separated from blood cells by centrifugation at 1500 g, 10 min, 4° C. and stored at −80° C. prior to ELISA analysis.” left out
Blood was also drawn from the tail vein into micronic tubes containing 500 μl of PAXgene solution (PAXgene blood RNA tubes from PreAnalytix). […] The ΔΔCt method (for relative quantification) was used to evaluate regulation of CXCL10 expression by the compound compared to the vehicle control. At each time point, the median and standard deviation over the 3 animals was calculated to evaluate the potency of the compounds.

CCCC[C@@H](CCOC(=O)C(C)C)Nc1nc(NC(=O)C(C)C)ncc1OC [Compound 1]
observed: Induction of endogenous interferon (IFN-α; liver, single oral dose of 15.5 mg/kg (FIG. 1A)) | Induction of endogenous interferon (IFN-α; plasma, single oral dose of 15.5 mg/kg (FIG. 1B)) | upregulation of CXCL10 (CXCL10 mRNA; blood, single oral dose of 15.5 mg/kg (FIG. 2B)) | upregulation of CXCL10 (CXCL10 mRNA; liver, single oral dose of 15.5 mg/kg (FIG. 2A))
